In patent US5972894A, “Peptides having potassium channel opener activity” (Cytran, Inc., priority 1997, dated 1999):

Tests used:
[1] = system: rats; assay: Early ischemic myocardial arrhythmias after coronary artery ligation; assay type: in vivo; conditions: 0.5 mg/kg i.v.; 30 min after coronary occlusion
Experimental: White random-bred male rats weighing 200 g were given light ether anesthesia and were then immobilized and artificially ventilated. The descending branch of the left coronary artery of each rat was ligated. Immediately following ligation, a test or control substance was administered to each rat through the catheterized femoral vein, and an ECG recording was initiated (standard lead II) and maintained for the next 30 minutes.
GE and VT served as test substances and were administered to animals in the respective test groups at doses of 0.1, 1.0, and 10.0 mg/kg. The β-adrenergic blocking agent, propranolol (Obzidan, Germed, Germany), served as the positive control substance and was administered intravenously to each animal in the positive control group at a dose of 0.5 mg/kg. Physiological saline served as the negative control substance and was administered intravenously to animals in the negative control group. Each dose of each test or control substance was tested separately on a group of nine animals.
The following parameters were evaluated based upon the ECG recordings: (i) the number of ventricular extrasystoles that occurred within a 30-minute observation period following coronary occlusion; (ii) the overall cumulative duration of ventricular tachycardias (i.e., the summation of duration of individual paroxysmal ventricular rhythm disturbances in seconds) occurring within the 30-minute observation period; and (iii) the overall duration (in seconds) of the ventricular fibrillations occurring within the 30-minute observation period. The data were processed electronically and statistical comparisons were made between the values obtained from the animals in the experimental test groups and those in the different respective control groups.

[2] = system: rats; assay: CPK activity in blood serum 1 hour after coronary occlusion; assay type: in vivo; conditions: dose printed --; i.v.; 1 hour after coronary occlusion
Experimental: White random-bred male rats weighing approximately 200 g were anesthetized using a light ether administration and then immobilized and artificially ventilated. […] Immediately after ligation, a test substance, positive, control substance, or negative control substance (described below) was administered to a rat through a catheterized femoral vein. Each dose of each test substance or positive or negative control substance was administered to an experimental or control group of 9 test rats. In this study, GE and VT served as test substances, propranolol served as the positive control substance, and physiological saline served as the negative control substance. Each test rat in an experimental group was given a dose of either 0.1, 1.0, or 10.0 milligram GE per kilogram of body weight of the subject animal (mg/kg) or 0.1, 1.0, or 10.0 milligram VT per kilogram of body weight of the animal. Each animal of the positive control group received an intravenous dose of 0.5 mg of β-adrenergic blocking agent, propranolol (Obzidan, Germed, Germany) per kilogram of body weight. Propranolol is commonly used to manage cardiac arrhythmia and there is some evidence that the agent may reduce the extent of ischemic damage to the heart. […] Each animal of the negative control group received physiological saline.
One hour after initiation of the coronary artery occlusion, each test animal was sacrificed, its blood was collected, and the CPK activity in its blood serum was measured. CPK activity was determined by using a standard biochemical method, such as that commercially available from the Lachema Company (Czechia) in its test kit, and by following the manufacturer's process instructions included in the package insert.
As a supplementary control for the possible trauma caused by the surgical procedure, a group of 9 sham-operated rats was included in the study. These test animals were subjected to chest dissection, but not to coronary artery occlusion. These "sham-operated" animals were not treated with any test or control substances and were euthanized 1 hour after surgery. Their blood was then collected for determination of CPK activity.

CC(C)NCC(O)COc1cccc2ccccc12 (stereo not drawn) [Propranolol, propranolol, reference compound]
Number of Ventricular Extrasystoles [1]: 61.22
Overall Duration of Ventricular Tachycardia [1]: 56.74 s
CPK Activity in blood serum [2]: 0.170 (±0.011) mcCat/L
